Data: paper PMC11271627, “Molecular dynamics-guided optimization of BGM0504 enhances dual-target agonism for combating diabetes and obesity” (Scientific Reports, 2024)

Tests used:
[1] = biological target: T1, Human GLP-1R (Homo sapiens, UniProt P43220); test: cAMP accumulation assay, GLP-1R; type: cell-based; settings: HEK293 cells; relative to 10 nM GLP-1(7–37) high control; arithmetic mean ± SEM
T1 construct: expressed in transfected cells; host or cells: HEK293 cells
Method: (§1) These cells were then resuspended in 5 mL of the assay buffer, and their concentration was determined using a Vi-Cell Counter. […] Samples were subsequently added to the assay plate along with ECHO555. […] A volume of 10 µL of the cell suspension was added to the assay plate, with a density of 1000 cells/well for GLP-1R testing and 2000 cells/well for GIPR testing. The assay plate was then incubated in a 23°C incubator for 30 minutes. A starting concentration of 800 nM was used to prepare the cAMP standard curve, followed by a 4-fold 10-point serial dilution. These serially diluted cAMP standards were added to the assay plate at a volume of 10 µL/well. Subsequently, 10 µL of the cAMP detection solution was added to the assay plate, and the plate was incubated at room temperature for 1 hour, shielded from direct light. […] For data analysis, each data point’s cAMP level (nM) was calculated using the established cAMP standard curve. The percentage activity for each data point was determined using the formula: % Activity = (cAMP level of testing sample - average cAMP level of low control) / ([…] cAMP level of high control - average cAMP level of […] control) × 100%. Additionally, the ‘log(agonist) vs. response – variable slope’ model in GraphPad Prism 5.0 was used to fit the dose-response curve of each sample and calculate the EC50 value.

[2] = biological target: T2, Human GIPR (Homo sapiens, UniProt P48546); test: cAMP accumulation assay, GIPR; type: cell-based; settings: CHO
T2 construct: expressed in transfected cells; host or cells: CHO cells
T2 sequence (P48546 22-466): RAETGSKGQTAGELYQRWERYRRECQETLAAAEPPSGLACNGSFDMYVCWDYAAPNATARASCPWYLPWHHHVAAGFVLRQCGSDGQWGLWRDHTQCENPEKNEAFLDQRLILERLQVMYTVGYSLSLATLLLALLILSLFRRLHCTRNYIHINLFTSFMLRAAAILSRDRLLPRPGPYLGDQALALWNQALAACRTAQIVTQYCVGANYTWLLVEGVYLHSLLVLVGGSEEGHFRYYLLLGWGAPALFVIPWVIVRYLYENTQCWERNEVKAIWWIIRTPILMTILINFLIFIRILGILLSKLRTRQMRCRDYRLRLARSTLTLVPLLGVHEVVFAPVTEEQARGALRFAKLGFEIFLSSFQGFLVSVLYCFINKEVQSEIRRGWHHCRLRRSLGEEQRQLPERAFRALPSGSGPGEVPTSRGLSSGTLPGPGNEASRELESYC
Method: as §1

[3] = biological target: T3, Human Serum Albumin (HSA) protein (Homo sapiens, UniProt P02768); test: biochemical; type: binding
T3 construct: purified Human ALB (25–609)-His was immobilized
T3 sequence (P02768 25-609): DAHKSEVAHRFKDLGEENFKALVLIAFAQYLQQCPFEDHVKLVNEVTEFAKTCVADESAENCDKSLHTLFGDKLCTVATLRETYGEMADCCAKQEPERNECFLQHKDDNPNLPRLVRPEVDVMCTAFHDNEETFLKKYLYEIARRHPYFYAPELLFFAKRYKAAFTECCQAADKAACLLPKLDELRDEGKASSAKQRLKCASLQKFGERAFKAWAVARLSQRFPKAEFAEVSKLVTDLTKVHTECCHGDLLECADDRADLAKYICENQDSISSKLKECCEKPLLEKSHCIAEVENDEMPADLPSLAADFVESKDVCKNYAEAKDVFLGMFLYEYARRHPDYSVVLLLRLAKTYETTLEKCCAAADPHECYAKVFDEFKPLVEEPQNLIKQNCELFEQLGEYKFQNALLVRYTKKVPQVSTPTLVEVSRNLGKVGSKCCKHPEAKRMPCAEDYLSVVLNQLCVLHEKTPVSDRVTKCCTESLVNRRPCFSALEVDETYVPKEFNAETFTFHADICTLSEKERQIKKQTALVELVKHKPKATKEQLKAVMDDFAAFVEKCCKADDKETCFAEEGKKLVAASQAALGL
Description: The buffer used was PBST (PBS with 0.02% Tween 20).

T1 sequence (P43220 24-463): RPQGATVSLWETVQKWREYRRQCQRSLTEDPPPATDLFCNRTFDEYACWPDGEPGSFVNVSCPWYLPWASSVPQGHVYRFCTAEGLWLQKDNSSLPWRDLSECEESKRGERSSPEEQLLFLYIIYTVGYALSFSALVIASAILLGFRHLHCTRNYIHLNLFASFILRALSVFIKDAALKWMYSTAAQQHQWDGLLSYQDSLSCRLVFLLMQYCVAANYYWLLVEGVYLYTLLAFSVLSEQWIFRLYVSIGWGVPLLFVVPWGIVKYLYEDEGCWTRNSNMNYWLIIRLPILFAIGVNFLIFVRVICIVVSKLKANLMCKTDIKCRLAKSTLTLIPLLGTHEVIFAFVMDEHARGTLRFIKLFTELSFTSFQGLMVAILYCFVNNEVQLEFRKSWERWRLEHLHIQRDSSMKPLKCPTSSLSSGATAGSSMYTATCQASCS

| SMILES | Emax [1] [%] | Emax [2] [%] | Kd [3] [nM] |
| --- | --- | --- | --- |
| CC[C@H](C)[C@H](NC(=O)[C@H](CC(C)C)NC(=O)[C@H](Cc1c[nH]c2ccccc12)NC(=O)[C@H](CCC(N)=O)NC(=O)[C@@H](NC(=O)[C@H](Cc1ccccc1)NC(=O)[C@H](C)NC(=O)[C@H](CCCCN)NC(=O)[C@H](CCC(N)=O)NC(=O)[C@H](C)NC(=O)[C@@H](NC(=O)[C@H](CCCCN)NC(=O)[C@H](CC(=O)O)NC(=O)[C@H](CC(C)C)NC(=O)C(C)(C)NC(=O)[C@@H](NC(=O)[C@H](CO)NC(=O)[C@H](Cc1ccc(O)cc1)NC(=O)[C@H](CC(=O)O)NC(=O)[C@H](CO)NC(=O)[C@@H](NC(=O)[C@H](Cc1ccccc1)NC(=O)[C@@H](NC(=O)CNC(=O)[C@H](CCC(=O)O)NC(=O)C(C)(C)NC(=O)[C@@H](N)Cc1ccc(O)cc1)[C@@H](C)O)[C@@H](C)O)[C@@H](C)CC)[C@@H](C)CC)C(C)C)C(=O)N[C@@H](C)C(=O)NCC(=O)NCC(=O)N1CCC[C@H]1C(=O)N[C@@H](CO)C(=O)N[C@@H](CO)C(=O)NCC(=O)N[C@@H](C)C(=O)N1CCC[C@H]1C(=O)N1CCC[C@H]1C(=O)N1CCC[C@H]1C(=O)N[C@@H](CO)C(N)=O [Non-acylated Tirzepatide, reference compound] | 96.1 ± 10.8 | 92.2 ± 1.7 | – |
| CC[C@H](C)[C@H](NC(=O)[C@H](CC(C)C)NC(=O)[C@H](Cc1c[nH]c2ccccc12)NC(=O)[C@H](CCC(N)=O)NC(=O)[C@@H](NC(=O)[C@H](Cc1ccccc1)NC(=O)[C@H](C)NC(=O)[C@H](CCCCNC(=O)COCCOCCNC(=O)COCCOCCNC(=O)CC[C@H](NC(=O)CCCCCCCCCCCCCCCCCCC(=O)O)C(=O)O)NC(=O)[C@H](CCC(N)=O)NC(=O)[C@H](C)NC(=O)[C@@H](NC(=O)[C@H](CCCCN)NC(=O)[C@H](CC(=O)O)NC(=O)[C@H](CC(C)C)NC(=O)C(C)(C)NC(=O)[C@@H](NC(=O)[C@H](CO)NC(=O)[C@H](Cc1ccc(O)cc1)NC(=O)[C@H](CC(=O)O)NC(=O)[C@H](CO)NC(=O)[C@@H](NC(=O)[C@H](Cc1ccccc1)NC(=O)[C@@H](NC(=O)CNC(=O)[C@H](CCC(=O)O)NC(=O)C(C)(C)NC(=O)[C@@H](N)Cc1ccc(O)cc1)[C@@H](C)O)[C@@H](C)O)[C@@H](C)CC)[C@@H](C)CC)C(C)C)C(=O)N[C@@H](C)C(=O)NCC(=O)NCC(=O)N1CCC[C@H]1C(=O)N[C@@H](CO)C(=O)N[C@@H](CO)C(=O)NCC(=O)N[C@@H](C)C(=O)N1CCC[C@H]1C(=O)N1CCC[C@H]1C(=O)N1CCC[C@H]1C(=O)N[C@@H](CO)C(N)=O [Tirzepatide, reference compound] | 84.1 ± 5 | 87.1 ± 7.6 | 86.3 |
